Measurements taken from US7833964B2, “Methods of reducing visceral fat by increasing levels of insulin-like growth factor-I (IGF-I)” (Tercica, Inc., priority 2003, dated 2010).

Assay: Adverse events judged possibly or probably related to study drug
Settings: glyburide 10 mg BID + rhIGF-I placebo (N = 34)
Method: All adverse events occurring during the treatment and post-treatment periods of the study (day 1 to week 14) were monitored through the follow-up evaluation at week 14. Adverse events continuing beyond the follow-up period were monitored until resolution, as appropriate.
In addition to the adverse events described above, hypoglycemia was expected to occur in some subjects. Hypoglycemia was defined as a BG of <50 mg/dL as indicated by the One-Touch Profile BG meter or the clinical laboratory. In the event of repeated hypoglycemic episodes, the glyburide dose could be decreased (during the treatment period only). Symptomatic hypoglycemic episodes, regardless of blood glucose reading, were documented as hypoglycemia.

## COc1ccc(Cl)cc1C(=O)NCCc1ccc(S(=O)(=O)NC(=O)NC2CCCCC2)cc1 [Glyburide, glyburide, reference compound]
  Adverse event: Arthralgia: 1 (3) n (%)
  Adverse event: Asthenia: 2 (6) n (%)
  Adverse event: Headache: 2 (6) n (%)
  Adverse event: Hypoglycemia: 3 (9) n (%)
  Adverse event: Jaw pain: 1 (3) n (%)
  Adverse event: Pain: 2 (6) n (%)
  Adverse event: Peripheral Edema: 0 n (%)
